Assay results published in publication PMC10691846 (Protein & Cell, 2023).

T1: Escherichia coli CydD (Escherichia coli, UniProt P29018 1-588)
T1 construct: CydD, subunit of the ABC transporter CydDC of Escherichia coli; also called EcCydD; source: purified as the EcCydDC complex
T1 sequence: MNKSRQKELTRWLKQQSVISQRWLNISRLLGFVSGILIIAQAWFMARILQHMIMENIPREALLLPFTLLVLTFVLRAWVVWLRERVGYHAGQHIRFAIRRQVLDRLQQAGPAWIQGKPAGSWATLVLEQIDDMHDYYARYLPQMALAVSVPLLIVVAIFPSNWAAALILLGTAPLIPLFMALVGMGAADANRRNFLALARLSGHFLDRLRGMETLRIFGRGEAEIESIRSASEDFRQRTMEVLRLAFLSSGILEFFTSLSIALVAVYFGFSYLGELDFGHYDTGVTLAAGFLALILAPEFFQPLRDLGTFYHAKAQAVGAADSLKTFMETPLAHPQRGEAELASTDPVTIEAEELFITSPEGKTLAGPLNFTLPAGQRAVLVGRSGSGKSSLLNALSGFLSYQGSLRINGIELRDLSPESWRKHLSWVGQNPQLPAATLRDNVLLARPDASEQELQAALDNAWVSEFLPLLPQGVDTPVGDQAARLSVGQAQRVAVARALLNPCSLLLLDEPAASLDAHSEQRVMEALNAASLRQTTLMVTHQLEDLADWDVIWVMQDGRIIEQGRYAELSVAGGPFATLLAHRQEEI


Legend:
MsCydDC [1] = target: T2, MsCydDC (Mycolicibacterium smegmatis, UniProt A0QXA6+A4ZHS8); assay: ATPase activity assay; type: biochemical; settings: Arg324 of CydC Linking-beta2 Loop sandwiches the adenosine ring at the CydC NBD
T2 construct: gene MSMEG3240; purified CydC-CydD heterodimer
T2 sequence (A0QXA6 entry or part of it): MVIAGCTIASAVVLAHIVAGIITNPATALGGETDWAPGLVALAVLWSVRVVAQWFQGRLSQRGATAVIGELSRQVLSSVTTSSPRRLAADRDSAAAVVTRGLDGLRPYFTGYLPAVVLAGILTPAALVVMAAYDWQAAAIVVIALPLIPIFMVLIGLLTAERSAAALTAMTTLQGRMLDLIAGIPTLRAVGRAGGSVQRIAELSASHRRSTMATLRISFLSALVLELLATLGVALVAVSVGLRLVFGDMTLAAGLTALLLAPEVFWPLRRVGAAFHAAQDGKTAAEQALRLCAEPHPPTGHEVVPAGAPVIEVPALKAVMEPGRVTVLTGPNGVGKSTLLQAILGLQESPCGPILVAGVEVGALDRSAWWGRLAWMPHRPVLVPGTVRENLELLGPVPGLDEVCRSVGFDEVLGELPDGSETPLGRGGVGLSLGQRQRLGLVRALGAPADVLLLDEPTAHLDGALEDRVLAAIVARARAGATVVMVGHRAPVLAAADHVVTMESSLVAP
T2 sequence (A4ZHS8 entry or part of it): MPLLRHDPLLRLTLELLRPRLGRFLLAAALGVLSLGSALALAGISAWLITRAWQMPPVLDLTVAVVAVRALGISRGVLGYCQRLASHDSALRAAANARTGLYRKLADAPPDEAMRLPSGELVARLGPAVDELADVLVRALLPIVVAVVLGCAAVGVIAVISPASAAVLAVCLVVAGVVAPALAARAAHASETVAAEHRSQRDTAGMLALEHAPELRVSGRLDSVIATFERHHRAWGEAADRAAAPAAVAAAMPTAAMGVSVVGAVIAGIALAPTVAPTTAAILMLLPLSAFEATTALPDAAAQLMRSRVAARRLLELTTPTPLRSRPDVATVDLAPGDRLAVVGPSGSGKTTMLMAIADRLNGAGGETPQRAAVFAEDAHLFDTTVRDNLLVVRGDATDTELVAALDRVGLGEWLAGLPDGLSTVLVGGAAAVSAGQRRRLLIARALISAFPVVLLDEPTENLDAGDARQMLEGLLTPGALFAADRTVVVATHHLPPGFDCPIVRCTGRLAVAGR

MsCydDC [2] = target: T2, MsCydDC; assay: ATPase activity assay; type: biochemical; settings: Arg85 of CydD ICL1 stabilizes the adenosine ring at the CydD NBD
EcCydDC = target: T3, EcCydDC (Escherichia coli, UniProt P23886+P29018); assay: cryo-EM structure of the complex; type: binding; settings: ATP-bound occluded state
T3 construct: gene cydC; purified CydC-CydD heterodimer

MsCydDC [3] = target: T2, MsCydDC; assay: ATPase activity assay; type: biochemical; settings: Arg326 of CydC Linking-beta2 Loop sandwiches the adenosine ring at the CydC NBD
MsCydDC [4] = target: T2, MsCydDC; assay: cryo-EM structure of the complex; type: binding; settings: Mg2+; ATP in the NBDs of CydC and CydD; outward-facing state
Escherichia coli CydD = target: T1, Escherichia coli CydD; assay: cryo-EM structure; purified CydDC complexes; MsCydDC in apo and ATP-bound states, EcCydDC in heme-loading and ATP-bound states; settings: both partners purified

Molecule	ATPase activity (MsCydDC [1])	ATPase activity (MsCydDC [2])	cryo-EM structure of the complex (EcCydDC)	ATPase activity (MsCydDC [3])	cryo-EM structure of the complex (MsCydDC [4])	binding result (Escherichia coli CydD)
Nc1ncnc2c1ncn2[C@@H]1O[C@H](COP(=O)(O)OP(=O)(O)OP(=O)(O)O)[C@@H](O)[C@H]1O [ATP]	a single mutation of any of these Arg residues significantly affected the ATPase activity	a single mutation of any of these Arg residues significantly affected the ATPase activity	We then determined the Cryo-EM structures of CydDC from Msm or E. coli	a single mutation of any of these Arg residues significantly affected the ATPase activity	the adenosine ring of ATP is stabilized by the sidechain of Arg85 from ICL1	–
Escherichia coli CydC (natural protein, CydC, subunit of the ABC transporter CydDC of Escherichia coli; also called EcCydC; source: purified as the EcCydDC complex) MRALLPYLALYKRHKWMLSLGIVLAIVTLLASIGLLTLSGWFLSASAVAGVAGLYSFNYMLPAAGVRGAAITRTAGRYFERLVSHDATFRVLQHLRIYTFSKLLPLSPAGLARYRQGELLNRVVADVDTLDHLYLRVISPLVGAFVVIMVVTIGLSFLDFTLAFTLGGIMLLTLFLMPPLFYRAGKSTGQNLTHLRGQYRQQLTAWLQGQAELTIFGASDRYRTQLENTEIQWLEAQRRQSELTALSQAIMLLIGALAVILMLWMASGGVGGNAQPGALIALFVFCALAAFEALAPVTGAFQHLGQVIASAVRISDLTDQKPEVTFPDTQTRVADRVSLTLRDVQFTYPEQSQQALKGISLQVNAGEHIAILGRTGCGKSTLLQQLTRAWDPQQGEILLNDSPIASLNEAALRQTISVVPQRVHLFSATLRDNLLLASPGSSDEALSEILRRVGLEKLLEDAGLNSWLGEGGRQLSGGELRRLAIARALLHDAPLVLLDEPTEGLDATTESQILELLAEMMREKTVLMVTHRLRGLSRFQQIIVMDNGQIIEQGTHAELLARQGRYYQFKQGL	–	–	–	–	–	binds
